Measured values published in PMC9607330, “Cell Cycle Arrest and Apoptosis-Inducing Ability of Benzimidazole Derivatives: Design, Synthesis, Docking, and Biological Evaluation” (Molecules, 2022).

Columns and labels:
MDA-MB-231 cells [1] = assay: MTT antiproliferative assay, MDA-MB-231; details: for IC50: read-out: IC50 (μM) MDA-MB231, MTT, MDA-MB-231 (breast), mean ± SD of three experiments; for fold increase in cytotoxicity versus doxorubicin: MDA-MB-231, ratio of IC50 values
Procedure: Doxorubicin was used as a standard anticancer drug.
The cytotoxicity was assessed using the MTT method, according to our previously reported work [32]. The cell lines were purchased from American Type Culture Collection (ATCC).
FBS (10%) and 100 units/mL PS (penicillin/streptomycin) were
supplied to that same media. The cells incubated at 37 °C in a humidified environment with 5%

A549 cells [2] = assay: MTT antiproliferative assay, A549; format: cell-based, human; details: for IC50: Homo sapiens, MTT, A549 (lung), mean ± SD of three experiments; for times more active than doxorubicin: A549, ratio of IC50 values
From the text: (§1) adenocarcinoma) cell lines.
(§2) supplied to that same media.
(§3) carbon dioxide. […] The positive
(§4) (FluoStar Omega (BMG Labtec, Ortenberg, Germany).

SKOV3 cells [3] = assay: MTT antiproliferative assay, SKOV3; format: cell-based, human; details: for IC50: Homo sapiens, SK-OV-3, MTT, SKOV3 (ovarian), mean ± SD of three experiments; for fold better activity than doxorubicin: SKOV3, ratio of IC50 values
From the text: as §1, §2, §3, §4

EGFR kinase = EGFR kinase (Homo sapiens, UniProt P00533); assay: In vitro EGFR inhibitory activity; format: biochemical
Procedure: EGFR inhibitory activity was assayed according to the reported method.

A549 cells [4] = assay: Apoptosis, annexin V-FITC/PI flow cytometry, A549; format: cell-based, human; details: for early apoptosis: A549; for late apoptosis / necrosis: A549, result in words
Procedure: (§5) The apoptosis studies regarding compounds 10 and 13 using annexin V-FITC/PI staining was also examined by flow cytometry.
as §1, §2, §3, §4
(§6) delivered to cancer cells for 48 hours. A549, MDA,MB 231 and SKOV3 cells were then
(§7) Technology (CST) and incubated for 15 minutes. Fluorescence activated cell sorting analysis
(§8) of cell cycle phases for each sample [37].

SKOV3 cells [5] = assay: Cell cycle distribution, propidium iodide flow cytometry, SKOV3; format: cell-based, human; details: for cell cycle arrest phase: SKOV3; for cell distribution in G1 phase / cell distribution in G2 phase / cell distribution in S phase: SKOV3, treated at IC50 for 48 h; for cell distribution in G1 phase: control 31.03 ± 1.86%; for cell distribution in G2 phase: control 34.23 ± 1.38%; for cell distribution in S phase: control 34.72 ± 1.80%
Procedure: (§9) The most promising compounds (10 and 13) were explored for cell cycle distribution to determine the intracellular mode of action of these compounds. […] In the present study, compounds 10 and 13 arrest different cell cycle phases in A549, MDA-MB 231, and SKOV3 cancer cells. […] However, compound 10 arrests the G2/S phase in both MDA-MB 231 and SKOV3, while it arrests the G1/G2 phases in lung A549 carcinoma.
(§10) The analysis was performed according to our previously published work.
as §1, §2, §3, §4, §6, §7, §8

A549 cells [6] = assay: Cell cycle distribution, propidium iodide flow cytometry, A549; format: cell-based, human; details: for cell cycle arrest phase: A549; for cell distribution in G2 phase / cell distribution in G1 phase / cell distribution in S phase: A549, treated at IC50 for 48 h; for cell distribution in G2 phase: control 29.13 ± 2.31%; for cell distribution in G1 phase: control 32.88 ± 2.04%; for cell distribution in S phase: control 38.48 ± 3.71%
Procedure: as §9, §10, §1, §2, §3, §4, §6, §7, §8

MDA-MB-231 cells [7] = assay: Cell cycle distribution, propidium iodide flow cytometry, MDA-MB-231; format: cell-based, human; details: for cell cycle arrest phase: MDA-MB-231; for cell distribution in G1 phase / cell distribution in S phase / cell distribution in G2 phase: MDA-MB-231, treated at IC50 for 48 h; for cell distribution in G1 phase: control 28.51 ± 2.09%; for cell distribution in S phase: control 35.51 ± 2.10%; for cell distribution in G2 phase: control 35.96 ± 1.97%
Procedure: as §9, §10, §1, §2, §3, §4, §6, §7, §8

MDA-MB-231 cells [8] = assay: Apoptosis, annexin V-FITC/PI flow cytometry, MDA-MB-231; format: cell-based, human; details: for early apoptosis / late apoptosis: MDA-MB-231
Procedure: as §5, §1, §2, §3, §4, §6, §7, §8

SKOV3 cells [9] = assay: Apoptosis, annexin V-FITC/PI flow cytometry, SKOV3; format: cell-based, human
Procedure: as §5, §1, §2, §3, §4, §6, §7, §8

[10] = test system: non-small cell lung cancer (NSCLC); details: cited from earlier work
hepatocellular carcinoma = details: cited from earlier work
esophageal cancer = details: cited from earlier work

Chain of EGFR kinase (P00533 25-1210): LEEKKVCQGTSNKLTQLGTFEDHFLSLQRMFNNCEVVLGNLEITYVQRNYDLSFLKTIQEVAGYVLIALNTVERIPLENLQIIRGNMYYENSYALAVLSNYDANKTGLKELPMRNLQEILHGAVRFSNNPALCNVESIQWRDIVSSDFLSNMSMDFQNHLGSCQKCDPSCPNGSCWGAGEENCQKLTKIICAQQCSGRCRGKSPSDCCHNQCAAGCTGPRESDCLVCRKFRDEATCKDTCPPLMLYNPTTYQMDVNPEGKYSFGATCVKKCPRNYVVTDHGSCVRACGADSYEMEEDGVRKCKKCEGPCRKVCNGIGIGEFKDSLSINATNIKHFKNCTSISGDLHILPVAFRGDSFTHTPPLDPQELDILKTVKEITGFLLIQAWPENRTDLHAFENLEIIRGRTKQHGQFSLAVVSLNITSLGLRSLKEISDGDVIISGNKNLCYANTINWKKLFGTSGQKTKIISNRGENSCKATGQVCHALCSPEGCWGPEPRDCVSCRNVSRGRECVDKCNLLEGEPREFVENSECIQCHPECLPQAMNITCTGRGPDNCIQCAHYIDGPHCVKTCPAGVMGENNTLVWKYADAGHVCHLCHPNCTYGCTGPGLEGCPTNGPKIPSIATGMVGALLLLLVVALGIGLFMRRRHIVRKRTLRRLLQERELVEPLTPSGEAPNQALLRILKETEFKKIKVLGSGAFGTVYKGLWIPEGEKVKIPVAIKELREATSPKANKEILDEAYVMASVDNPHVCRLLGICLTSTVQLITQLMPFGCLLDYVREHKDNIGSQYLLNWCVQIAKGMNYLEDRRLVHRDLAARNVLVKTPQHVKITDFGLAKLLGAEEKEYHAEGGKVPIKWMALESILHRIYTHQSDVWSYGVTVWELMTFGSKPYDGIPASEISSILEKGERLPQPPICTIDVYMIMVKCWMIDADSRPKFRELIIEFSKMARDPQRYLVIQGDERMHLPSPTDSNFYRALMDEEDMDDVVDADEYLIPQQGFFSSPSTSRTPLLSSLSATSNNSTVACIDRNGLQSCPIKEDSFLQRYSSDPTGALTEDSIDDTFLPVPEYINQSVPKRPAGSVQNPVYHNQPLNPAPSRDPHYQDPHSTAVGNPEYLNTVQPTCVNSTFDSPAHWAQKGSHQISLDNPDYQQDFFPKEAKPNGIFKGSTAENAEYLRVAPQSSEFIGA

Fc1ccc(-n2cc(CSc3nnc(Cn4c(-c5ccc(Cl)cc5Cl)nc5ccccc54)o3)nn2)cc1 [Compound 8, 2-{[2-(2,4-Dichlorophenyl)-1H-benzo[d]imidazol-1-yl]methyl}-5-({[1-(4-Fluorophenyl)-1H-1,2,3-triazol-4-yl]methyl}thio)-1,3,4-oxadiazole]
IC50 (MDA-MB-231 cells [1]): 15.5 ± 1.64 µM
IC50 (A549 cells [2]): 26.7 ± 1.26 µM
IC50 (SKOV3 cells [3]): 17.7 ± 0.68 µM
melting point: 110 to 112 °C

Clc1ccc(-c2nc3ccccc3n2Cc2nnc(SCc3cn(-c4cccc(Br)c4)nn3)o2)c(Cl)c1 [Compound 9, 2-({[1-(3-Bromophenyl)-1H-1,2,3-triazol-4-yl]methyl}thio)-5-{[2-(2,4-Dichlorophenyl)-1H-benzo[d]imidazol-1-yl]methyl}-1,3,4-oxadiazole]
IC50 (MDA-MB-231 cells [1]): 10.9 ± 0.58 µM
IC50 (A549 cells [2]): 17.4 ± 0.54 µM
IC50 (SKOV3 cells [3]): 13.6 ± 0.71 µM
IC50 (EGFR kinase): 0.95 ± 0.023 µM
melting point: 180 to 182 °C

Oc1ccccc1-n1cc(CSc2nnc(Cn3c(-c4ccc(Cl)cc4Cl)nc4ccccc43)o2)nn1 [Compound 10, 2-(4-{[(5-{[2-(2,4-Dichlorophenyl)-1H-benzo[d]imidazol-1-yl]methyl}-1,3,4-oxadiazol-2-yl)thio]methyl}-1H-1,2,3-triazol-1-yl)phenol]
fold increase in cytotoxicity versus doxorubicin (MDA-MB-231 cells [1]): 4.0 fold
IC50 (MDA-MB-231 cells [1]): 1.18 ± 0.68 µM
early apoptosis (A549 cells [4]): 55.1%
late apoptosis (A549 cells [4]): no late apoptosis
necrosis (A549 cells [4]): no late apoptosis or necrosis
cell cycle arrest phase (SKOV3 cells [5]): G2/S phase
cell distribution in G1 phase (SKOV3 cells [5]): 16.15 ± 2.11%
cell distribution in G2 phase (SKOV3 cells [5]): 48.73± 1.89%
cell distribution in S phase (SKOV3 cells [5]): 35.11 ± 1.21%
times more active than doxorubicin (A549 cells [2]): 1.76 times
IC50 (A549 cells [2]): 3.31 ± 0.14 µM
cell cycle arrest phase (A549 cells [6]): G1 and G2 phases
cell distribution in G2 phase (A549 cells [6]): 33.01 ± 2.28%
cell distribution in G1 phase (A549 cells [6]): 34.66 ± 2.80%
cell distribution in S phase (A549 cells [6]): 32.32 ± 1.51%
IC50 (SKOV3 cells [3]): 6.98 ± 0.28 µM
fold better activity than doxorubicin (SKOV3 cells [3]): 1.23 fold
IC50 (EGFR kinase): 0.33 ± 0.051 µM
cell cycle arrest phase (MDA-MB-231 cells [7]): S and G2 phases
cell distribution in G1 phase (MDA-MB-231 cells [7]): 17.58 ± 1.45%
cell distribution in S phase (MDA-MB-231 cells [7]): 37.82 ± 2.57%
cell distribution in G2 phase (MDA-MB-231 cells [7]): 44.58 ± 3.03%
early apoptosis (MDA-MB-231 cells [8]): 69.7%
late apoptosis (MDA-MB-231 cells [8]): 3.2%
necrosis (MDA-MB-231 cells [8]; MDA-MB-231, result in words): without any necrosis
early apoptosis (SKOV3 cells [9]): 58.5%

Cc1ccccc1-n1cc(CSc2nnc(Cn3c(-c4ccc(Cl)cc4Cl)nc4ccccc43)o2)nn1 [Compound 11, 2-{[2-(2,4-Dichlorophenyl)-1H-benzo[d]imidazol-1-yl]methyl}-5-({[1-(o-tolyl)-1H-1,2,3-triazol-4-yl]methyl}thio)-1,3,4-oxadiazole]
IC50 (MDA-MB-231 cells [1]): 36.7 ± 0.75 µM
IC50 (A549 cells [2]): 43.8 ± 0.87 µM
IC50 (SKOV3 cells [3]): 25.7 ± 1.16 µM
melting point: 152 to 153 °C

Clc1ccc(-c2nc3ccccc3n2Cc2nnc(SCc3cn(-c4ccc(Cl)cc4Cl)nn3)o2)c(Cl)c1 [Compound 12, 2-({[1-(2,4-Dichlorophenyl)-1H-1,2,3-triazol-4-yl]methyl}thio)-5-{[2-(2,4-Dichlorophenyl)-1H-benzo[d]imidazol-1-yl]methyl}-1,3,4-oxadiazole]
IC50 (MDA-MB-231 cells [1]): 25.2 ± 1.82 µM
IC50 (A549 cells [2]): 37.1 ± 0.67 µM
IC50 (SKOV3 cells [3]): 33.6 ± 0.91 µM
melting point: 100 to 102 °C

O=C(CSc1nnc(Cn2c(-c3ccc(Cl)cc3Cl)nc3ccccc32)o1)Nc1ccc(F)cc1 [Compound 13, 2-[(5-{[2-(2,4-Dichlorophenyl)-1H-benzo[d]imidazol-1-yl]methyl}-1,3,4-oxadiazol-2-yl)thio]-N-(4-Fluorophenyl)acetamide]
fold increase in cytotoxicity versus doxorubicin (MDA-MB-231 cells [1]): 1.64 fold
IC50 (MDA-MB-231 cells [1]): 2.9 ± 0.53 µM
early apoptosis (A549 cells [4]): 66.4%
late apoptosis (A549 cells [4]): no late apoptosis
necrosis (A549 cells [4]): no late apoptosis or necrosis
cell cycle arrest phase (SKOV3 cells [5]): only the S phase
cell distribution in G1 phase (SKOV3 cells [5]): 25.38 ± 0.44%
cell distribution in G2 phase (SKOV3 cells [5]): 28.65 ± 1.73%
cell distribution in S phase (SKOV3 cells [5]): 45.93 ± 1.78%
times more active than doxorubicin (A549 cells [2]): 1.1 times
IC50 (A549 cells [2]): 5.3 ± 0.44 µM
cell cycle arrest phase (A549 cells [6]): G1 phase
cell distribution in G2 phase (A549 cells [6]): 24.64 ± 2.52%
cell distribution in G1 phase (A549 cells [6]): 36.34 ± 2.19%
cell distribution in S phase (A549 cells [6]): 38.99 ± 1.67%
IC50 (SKOV3 cells [3]): 4.35 ± 0.38 µM
fold better activity than doxorubicin (SKOV3 cells [3]): 1.98 fold
IC50 (EGFR kinase): 0.38 ± 0.022 µM
cell cycle arrest phase (MDA-MB-231 cells [7]): G1 and S phases
cell distribution in G1 phase (MDA-MB-231 cells [7]): 34.88 ± 3.09%
cell distribution in S phase (MDA-MB-231 cells [7]): 41.14 ± 1.34%
cell distribution in G2 phase (MDA-MB-231 cells [7]): 23.97 ± 2.93%
early apoptosis (MDA-MB-231 cells [8]): 80.24%
late apoptosis (MDA-MB-231 cells [8]): 5.4%
early apoptosis (SKOV3 cells [9]): 76.2%
late apoptosis (SKOV3 cells [9]): 21.7%

O=C(CSc1nnc(Cn2c(-c3ccc(Cl)cc3Cl)nc3ccccc32)o1)Nc1ccc(F)cc1F [Compound 14, 2-[(5-{[2-(2,4-Dichlorophenyl)-1H-benzo[d]imidazol-1-yl]methyl}-1,3,4-oxadiazol-2-yl)thio]-N-(2,4-Difluorophenyl)acetamide]
IC50 (MDA-MB-231 cells [1]): 20.9 ± 0.24 µM
IC50 (A549 cells [2]): 11.6 ± 0.29 µM
IC50 (SKOV3 cells [3]): 12.8 ± 0.53 µM
IC50 (EGFR kinase): 1.21 ± 0.047 µM
melting point: 212 to 214 °C

O=C(CSc1nnc(Cn2c(-c3ccc(Cl)cc3Cl)nc3ccccc32)o1)Nc1ccc(Br)cc1 [Compound 15, N-(4-Bromophenyl)-2-[(5-{[2-(2,4-Dichlorophenyl)-1H-benzo[d]imidazol-1-yl]methyl}-1,3,4-oxadiazol-2-yl)thio]acetamide]
IC50 (MDA-MB-231 cells [1]): 16.4 ± 0.44 µM
IC50 (A549 cells [2]): 20.6 ± 1.41 µM
IC50 (SKOV3 cells [3]): 13.7 ± 0.45 µM
melting point: 220 to 222 °C

COc1ccc(NC(=O)CSc2nnc(Cn3c(-c4ccc(Cl)cc4Cl)nc4ccccc43)o2)cc1 [Compound 16, 2-[(5-{[2-(2,4-Dichlorophenyl)-1H-benzo[d]imidazol-1-yl]methyl}-1,3,4-oxadiazol-2-yl)thio]-N-(4-Methoxyphenyl)acetamide]
IC50 (MDA-MB-231 cells [1]): 10.5 ± 0.88 µM
IC50 (A549 cells [2]): 7.83 ± 0.35 µM
IC50 (SKOV3 cells [3]): 8.13 ± 0.28 µM
IC50 (EGFR kinase): 1.09 ± 0.011 µM
melting point: 195 to 197 °C

COC(=O)c1ccccc1NC(=O)CSc1nnc(Cn2c(-c3ccc(Cl)cc3Cl)nc3ccccc32)o1 [Compound 17, Methyl 2-{2-[(5-{[2-(2,4-Dichlorophenyl)-1H-benzo[d]imidazol-1-yl]methyl}-1,3,4-oxadiazol-2-yl)thio]acetamido}benzoate]
IC50 (MDA-MB-231 cells [1]): 11.9 ± 0.91 µM
IC50 (A549 cells [2]): 18 ± 0.87 µM
IC50 (SKOV3 cells [3]): 12.2 ± 0.35 µM
IC50 (EGFR kinase): 1.54 ± 0.026 µM
melting point: 176 to 178 °C

C#Cc1cccc(Nc2ncnc3cc(OCCOC)c(OCCOC)cc23)c1 [Erlotinib, erlotinib]
cell cycle arrest phase [10]: G0/G1 phase
cell cycle arrest phase (hepatocellular carcinoma): G1/S checkpoint
cell cycle arrest phase (esophageal cancer): G1/G0 phase

COc1cccc2c1C(=O)c1c(O)c3c(c(O)c1C2=O)C[C@@](O)(C(=O)CO)C[C@@H]3O[C@H]1C[C@H](N)[C@H](O)[C@H](C)O1 [doxorubicin, reference compound]
IC50 (MDA-MB-231 cells [1]): 4.76 ± 0.44 µM
IC50 (A549 cells [2]): 5.85 ± 0.61 µM
IC50 (SKOV3 cells [3]): 8.65 ± 0.37 µM
